Consider 2 compounds from ChEMBL document CHEMBL1136681, “[3H]-(R)-NPTS, a radioligand for the type 1 glycine transporter” (Bioorg Med Chem Lett, 2003).

The assay can be described thus: Inhibition of [3-H]-glycine uptake into rat synaptosomes. Type of assay: subcellular, Brain.

What is called IC50 is the concentration needed to halve the response being measured.

`Cc1ccc(C(=O)c2ccc(OC(CCN(C)CC(=O)O)c3ccccc3)cc2)cc1` (configuration not stated) registered an IC50 of 153 nM. This lies in the sub-micromolar range.
With `CN(CCC(Oc1ccc(-c2ccccc2)cc1)c1ccc(F)cc1)CC(=O)O` (configuration not stated) the figure was 36.4 nM.
